These results are taken from publication PMC11481871, “Discovery of GuaB inhibitors with efficacy against Acinetobacter baumannii infection” (mBio, 2024).

One data set has as its system A. baumannii 19606. In words: Fluctuation assay, frequency of spontaneous resistance. It is filed as cell-based, Acinetobacter baumannii. The settings on record: for frequency of on-target resistance mutations: A. baumannii, 4× or 8× MIC, p0 method; for F.O.R.: P0 method.
Data set [1] can be described thus: In vitro metabolism in mouse hepatocytes. It is filed as in vitro ADME. On the procedure: The incubation of G2 and G1 with cryopreserved mouse hepatocytes was conducted according to the standard in-house protocol. Cryopreserved hepatocytes were thawed using pre-warmed InVitroGRO HT thawing medium in 50 mL centrifuge tubes. The tubes were centrifuged for 3 min at 50 × g, and the supernatants were discarded. Cells were resuspended with 50 mL of pre-warmed Dulbecco’s modified eagle medium (DMEM) by gently inverting the tube several times. The tubes were centrifuged for 3 min at 50 × g, and the supernatants were discarded. Cells were brought up in 5.0 mL of pre-warmed DMEM incubation medium. The total cell counts and the number of viable cells were determined by the trypan blue exclusion method. Incubations were carried out in 20 mL scintillation vials containing 1.0 mL of hepatocyte suspension (approximately 1.3 × 10^6 cells/mL). The mouse hepatocytes were pre-incubated with or without 1 mM ABT or 4-MP for 15 min. Vials were spiked with G2 or G1 as a DMSO stock solution to a final concentration of 5 µM G2 or G1 and a final DMSO concentration of 0.1%. The scintillation vials were placed on an orbital shaker rotating at 16 rpm in a humidified incubator at 37°C, 5% CO2. The reaction was quenched with 4 mL of acetonitrile at 0 or 3 h. The hepatocyte samples were protein precipitated with 4 volumes of acetonitrile and centrifuged at 2,000 × g for 5 min. The resulting supernatant was reduced to a dry residue and reconstituted with 350 µL water:acetonitrile (2/1; vol/vol). All samples were analyzed by LC-MS/MS system.
Liquid chromatography (LC) equipment consisted of a CBM 20A Communications Module, NexeraX2 LC 30AD pumps, NexeraX2 SIL 30AC autosampler, CTO Prominence Column Oven from Shimadzu (Columbia, MD), and a 1290 Infinity DAD ultraviolet (UV) detector with a 60 mm flow cell from Agilent Technologies (Waldbronn, Germany). The LC column was an EVO C18 (1.9 µm, 2.1 × 100 mm) from Phenomenex. Mobile phase A was water with 0.1% formic acid and mobile phase B was acetonitrile with 0.1% formic acid. The flow rate was 400 µL/min and the injection volume was 10 µL. Column temperature was 40°C. Mass spectrometry was performed using a 5600 QTRAP mass spectrometer equipped with a TurboIonSpray from Applied Biosystems (Redwood City, CA). Various tandem mass spectrometry (MS/MS) functionalities were used for analysis, which included data-dependent time-of-flight (TOF) scans in a positive ion electrospray mode. The extracted ion chromatography traces were obtained following analysis of mouse hepatocyte incubations and were used to quantify the metabolites.

`C[C@H](Nc1ccc2ncc3c(c2c1)CCOC3)C(=O)Nc1ccc(Cl)nc1` [G1, (2S)-N-(6-chloro-3-pyridyl)-2-(2,4-dihydro-1H-pyrano[3,4-c]quinolin-9 ylamino)propanamide]: in the data set on A. baumannii 19606, the “frequency of on-target resistance mutations” value is 6.4 × 10^−11 to 2.9 × 10^−10. Besides, the “clearance in mouse hepatocytes” value in data set [1] was “high clearance”. Also, the “metabolism inhibited by ABT” value in data set [1] (1 mM ABT) is on record as 39%.

`C[C@H](Nc1ccc2ncc(CO)cc2c1)C(=O)Nc1ccc(Cl)c(N(C)C)c1` [G2, (2S)-N-[4-chloro-3-(dimethylamino)phenyl]-2-[[3-(hydroxymethyl)-6-quinolyl]amino]propanamide]: the “frequency of on-target resistance mutations” value with A. baumannii 19606 is 3.6 × 10^−10 to 5.1 × 10^−10. For the same compound, the results for the F.O.R. in the data set on A. baumannii 19606 (selection 4xMIC (G1 3.1µM; G2 6.4µM)) and in the data set on A. baumannii 19606 (selection 8xMIC (12.8µM)) were 3.60E-10 and 5.10E-10, respectively. Also, the “clearance in mouse hepatocytes” value in data set [1] was “high clearance”. For the same compound, the “metabolism inhibited by ABT and 4-MP” value in data set [1] (1-aminobenzotriazole (ABT) and 4-methylpyrazole (4-MP)) is 38%.
